Laboratory results: ChEMBL document CHEMBL5465560, “Selectivity Literature for EUbOPEN Chemogenomic Library” (2024)

Columns and labels:
[1] = molecular target: Calcium/calmodulin-dependent protein kinase kinase 1 (Homo sapiens) (UniProt Q8N5S9); test: Selectivity interaction (KinomeScan (DiscoverX)) EUB0000595a CAMKK1; details: at 10 µM
[2] = molecular target: Ribosomal protein S6 kinase alpha-1 (Homo sapiens, UniProt Q15418); test: Selectivity interaction (KinomeScan (DiscoverX)) EUB0000045b RPS6KA1; details: at 10 µM
[3] = molecular target: Serine/threonine-protein kinase 38-like (Homo sapiens) (UniProt Q9Y2H1); test: Selectivity interaction (KinomeScan (DiscoverX)) EUB0001079a STK38L; details: at 1 µM
[4] = test system: Fibroblast growth factor receptor 1 (Homo sapiens), P11362 [V561M]; test: Selectivity interaction (LanthaScreen Eu Kinase Binding Assay) EUB0001632a FGFR1; details: at 10 µM
[5] = molecular target: T1, Phosphatidylinositol 3-kinase C2 domain-containing subunit gamma (Homo sapiens) (UniProt O75747); test: Selectivity interaction (Kinase panel (Eurofins)) EUB0001564a PIK3C2G; details: at 1 µM
T1 sequence (whole entry): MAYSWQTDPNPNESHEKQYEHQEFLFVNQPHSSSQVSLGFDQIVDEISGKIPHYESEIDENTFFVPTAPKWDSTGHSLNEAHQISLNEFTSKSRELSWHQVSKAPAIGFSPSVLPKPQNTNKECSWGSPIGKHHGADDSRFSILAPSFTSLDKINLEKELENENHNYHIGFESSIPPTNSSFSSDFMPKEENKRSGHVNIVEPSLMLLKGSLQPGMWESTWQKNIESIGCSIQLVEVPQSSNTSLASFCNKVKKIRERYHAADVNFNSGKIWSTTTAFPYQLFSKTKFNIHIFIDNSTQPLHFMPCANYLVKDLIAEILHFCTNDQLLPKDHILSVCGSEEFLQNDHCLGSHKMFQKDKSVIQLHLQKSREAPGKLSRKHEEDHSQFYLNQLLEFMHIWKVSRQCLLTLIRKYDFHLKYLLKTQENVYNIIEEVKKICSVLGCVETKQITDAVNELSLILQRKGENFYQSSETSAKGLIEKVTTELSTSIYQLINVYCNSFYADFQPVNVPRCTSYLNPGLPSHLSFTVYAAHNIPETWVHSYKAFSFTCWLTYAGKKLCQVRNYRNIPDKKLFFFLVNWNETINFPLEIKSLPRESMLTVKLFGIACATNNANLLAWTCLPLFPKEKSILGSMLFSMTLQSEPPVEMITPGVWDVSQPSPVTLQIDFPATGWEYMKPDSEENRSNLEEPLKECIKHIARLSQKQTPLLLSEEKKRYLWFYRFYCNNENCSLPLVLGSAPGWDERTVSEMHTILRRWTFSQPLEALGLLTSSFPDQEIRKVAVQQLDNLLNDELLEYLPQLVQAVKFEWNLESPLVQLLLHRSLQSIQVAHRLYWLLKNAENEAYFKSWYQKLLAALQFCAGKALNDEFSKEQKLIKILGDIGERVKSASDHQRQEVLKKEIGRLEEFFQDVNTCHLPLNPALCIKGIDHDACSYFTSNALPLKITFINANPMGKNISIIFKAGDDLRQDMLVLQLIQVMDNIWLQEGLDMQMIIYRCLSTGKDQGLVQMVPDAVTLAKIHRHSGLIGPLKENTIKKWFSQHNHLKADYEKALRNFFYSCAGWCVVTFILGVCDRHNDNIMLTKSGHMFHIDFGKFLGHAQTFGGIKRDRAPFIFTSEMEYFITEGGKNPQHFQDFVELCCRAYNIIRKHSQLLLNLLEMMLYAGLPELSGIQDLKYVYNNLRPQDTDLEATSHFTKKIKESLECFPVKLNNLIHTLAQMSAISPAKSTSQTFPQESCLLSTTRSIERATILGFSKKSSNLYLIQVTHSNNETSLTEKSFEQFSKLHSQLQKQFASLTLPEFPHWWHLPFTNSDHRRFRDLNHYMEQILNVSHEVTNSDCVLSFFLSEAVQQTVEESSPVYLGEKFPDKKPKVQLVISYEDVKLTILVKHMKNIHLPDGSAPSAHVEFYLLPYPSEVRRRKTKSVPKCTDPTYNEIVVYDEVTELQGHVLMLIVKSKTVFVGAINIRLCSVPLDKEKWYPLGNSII

[6] = molecular target: 5'-AMP-activated protein kinase catalytic subunit alpha-1 (Homo sapiens, UniProt Q13131); test: Selectivity interaction (ActivX KiNativ screen (ex vivo kinase selectivity in human PBMCs)) EUB0001619a PRKAA1; assay type: cell-based; details: PBMC, at 1 µM
[7] = molecular target: Fibroblast growth factor receptor 1 (Homo sapiens, UniProt P11362); test: Selectivity interaction (KinaseProfiler screening (Millipore)) EUB0000601a FGFR1; details: at 3 µM
[8] = molecular target: T2, Ephrin type-B receptor 6 (Homo sapiens) (UniProt O15197); test: Selectivity interaction (KinomeScan (DiscoverX)) EUB0000618a EPHB6; details: at 10 µM
T2 sequence (whole entry): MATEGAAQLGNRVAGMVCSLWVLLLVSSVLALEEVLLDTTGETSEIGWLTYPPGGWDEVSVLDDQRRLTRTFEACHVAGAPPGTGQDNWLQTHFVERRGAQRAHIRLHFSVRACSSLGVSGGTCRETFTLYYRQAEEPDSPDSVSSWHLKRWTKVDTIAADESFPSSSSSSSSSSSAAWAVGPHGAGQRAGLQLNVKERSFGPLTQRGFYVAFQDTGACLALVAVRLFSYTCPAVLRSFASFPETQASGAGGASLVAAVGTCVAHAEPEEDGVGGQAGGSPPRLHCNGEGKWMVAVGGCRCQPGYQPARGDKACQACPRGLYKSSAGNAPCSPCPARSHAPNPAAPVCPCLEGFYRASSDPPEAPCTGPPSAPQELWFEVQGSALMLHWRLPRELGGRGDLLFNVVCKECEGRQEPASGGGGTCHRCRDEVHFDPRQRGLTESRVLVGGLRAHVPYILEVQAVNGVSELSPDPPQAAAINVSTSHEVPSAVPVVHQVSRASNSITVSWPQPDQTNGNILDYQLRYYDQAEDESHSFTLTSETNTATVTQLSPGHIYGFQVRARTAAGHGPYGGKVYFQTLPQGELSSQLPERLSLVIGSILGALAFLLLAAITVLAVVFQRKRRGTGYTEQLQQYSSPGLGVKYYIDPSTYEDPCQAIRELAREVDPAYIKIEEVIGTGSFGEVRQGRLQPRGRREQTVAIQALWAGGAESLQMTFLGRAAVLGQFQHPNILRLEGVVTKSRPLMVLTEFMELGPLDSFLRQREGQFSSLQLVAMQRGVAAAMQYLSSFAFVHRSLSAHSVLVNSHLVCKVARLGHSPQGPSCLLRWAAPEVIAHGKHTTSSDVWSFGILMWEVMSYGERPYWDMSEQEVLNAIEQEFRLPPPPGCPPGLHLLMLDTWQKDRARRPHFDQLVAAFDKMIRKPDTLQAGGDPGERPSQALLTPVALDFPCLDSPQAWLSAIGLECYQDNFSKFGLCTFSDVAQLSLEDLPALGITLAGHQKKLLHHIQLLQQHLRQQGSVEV

[9] = molecular target: Serine/threonine-protein kinase SIK3 (Homo sapiens) (UniProt Q9Y2K2); test: Selectivity interaction (KinomeScan (DiscoverX)) EUB0000092b SIK3; details: at 10 µM
Sequence of Serine/threonine-protein kinase SIK3 (Homo sapiens) (Q9Y2K2 whole entry, looked up): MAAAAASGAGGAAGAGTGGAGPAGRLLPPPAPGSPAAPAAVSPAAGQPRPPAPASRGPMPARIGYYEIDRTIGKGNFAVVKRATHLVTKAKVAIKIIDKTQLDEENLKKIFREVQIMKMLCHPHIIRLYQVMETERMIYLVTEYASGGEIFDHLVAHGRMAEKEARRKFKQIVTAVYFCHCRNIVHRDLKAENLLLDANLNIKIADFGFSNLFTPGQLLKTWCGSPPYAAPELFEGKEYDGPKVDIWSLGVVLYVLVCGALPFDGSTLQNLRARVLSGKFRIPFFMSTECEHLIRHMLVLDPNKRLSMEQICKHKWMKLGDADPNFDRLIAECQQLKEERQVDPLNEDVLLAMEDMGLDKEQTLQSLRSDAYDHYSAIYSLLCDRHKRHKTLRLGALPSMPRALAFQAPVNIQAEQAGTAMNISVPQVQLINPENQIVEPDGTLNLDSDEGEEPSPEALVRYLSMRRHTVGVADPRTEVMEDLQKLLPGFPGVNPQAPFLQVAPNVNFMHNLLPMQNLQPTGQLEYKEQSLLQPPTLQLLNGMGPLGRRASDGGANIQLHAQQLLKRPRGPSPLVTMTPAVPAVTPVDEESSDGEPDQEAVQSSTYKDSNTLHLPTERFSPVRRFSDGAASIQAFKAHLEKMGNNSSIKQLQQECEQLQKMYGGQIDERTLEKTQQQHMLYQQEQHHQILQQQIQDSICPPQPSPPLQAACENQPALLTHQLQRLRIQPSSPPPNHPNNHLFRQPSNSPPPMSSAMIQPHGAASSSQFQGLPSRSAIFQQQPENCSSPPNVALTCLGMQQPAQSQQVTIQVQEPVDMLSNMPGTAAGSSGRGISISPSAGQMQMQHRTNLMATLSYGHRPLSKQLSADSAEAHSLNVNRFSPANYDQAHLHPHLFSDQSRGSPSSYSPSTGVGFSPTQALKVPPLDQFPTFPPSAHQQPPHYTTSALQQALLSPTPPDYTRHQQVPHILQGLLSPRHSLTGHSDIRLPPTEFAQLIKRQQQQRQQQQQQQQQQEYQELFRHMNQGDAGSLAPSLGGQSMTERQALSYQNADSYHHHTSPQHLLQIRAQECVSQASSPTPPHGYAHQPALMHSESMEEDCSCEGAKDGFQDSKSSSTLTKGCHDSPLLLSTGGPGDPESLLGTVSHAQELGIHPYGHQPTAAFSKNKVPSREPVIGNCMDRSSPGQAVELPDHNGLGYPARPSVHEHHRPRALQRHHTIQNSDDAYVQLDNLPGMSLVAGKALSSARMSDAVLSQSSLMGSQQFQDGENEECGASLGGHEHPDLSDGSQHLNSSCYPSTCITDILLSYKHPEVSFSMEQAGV

Sequence of Fibroblast growth factor receptor 1 (P11362 22-822 limits assumed): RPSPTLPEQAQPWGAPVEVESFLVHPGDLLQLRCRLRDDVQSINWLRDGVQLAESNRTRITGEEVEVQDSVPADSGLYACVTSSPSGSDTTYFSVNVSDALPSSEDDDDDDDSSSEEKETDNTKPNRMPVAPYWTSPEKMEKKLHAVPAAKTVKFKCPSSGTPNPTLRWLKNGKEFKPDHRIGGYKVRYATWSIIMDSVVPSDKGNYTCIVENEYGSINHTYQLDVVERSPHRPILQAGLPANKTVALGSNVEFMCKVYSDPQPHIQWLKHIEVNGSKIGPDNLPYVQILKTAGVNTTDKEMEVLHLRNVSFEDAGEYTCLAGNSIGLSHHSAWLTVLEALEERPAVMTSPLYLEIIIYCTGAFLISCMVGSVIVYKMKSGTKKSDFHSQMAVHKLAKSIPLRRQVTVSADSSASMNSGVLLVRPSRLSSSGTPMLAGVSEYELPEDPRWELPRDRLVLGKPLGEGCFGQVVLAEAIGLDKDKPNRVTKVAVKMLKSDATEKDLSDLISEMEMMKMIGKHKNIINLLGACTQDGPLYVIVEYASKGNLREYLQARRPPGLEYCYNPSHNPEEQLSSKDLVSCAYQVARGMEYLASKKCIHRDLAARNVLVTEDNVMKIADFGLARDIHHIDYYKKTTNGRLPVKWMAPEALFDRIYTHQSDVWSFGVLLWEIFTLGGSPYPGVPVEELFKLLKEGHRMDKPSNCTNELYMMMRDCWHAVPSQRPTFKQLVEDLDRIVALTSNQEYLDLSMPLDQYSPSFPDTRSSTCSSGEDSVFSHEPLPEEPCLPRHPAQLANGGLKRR
Sequence of Fibroblast growth factor receptor 1 (Homo sapiens), P11362 [V561M] (P11362 whole entry V561M, the tested form may be a part): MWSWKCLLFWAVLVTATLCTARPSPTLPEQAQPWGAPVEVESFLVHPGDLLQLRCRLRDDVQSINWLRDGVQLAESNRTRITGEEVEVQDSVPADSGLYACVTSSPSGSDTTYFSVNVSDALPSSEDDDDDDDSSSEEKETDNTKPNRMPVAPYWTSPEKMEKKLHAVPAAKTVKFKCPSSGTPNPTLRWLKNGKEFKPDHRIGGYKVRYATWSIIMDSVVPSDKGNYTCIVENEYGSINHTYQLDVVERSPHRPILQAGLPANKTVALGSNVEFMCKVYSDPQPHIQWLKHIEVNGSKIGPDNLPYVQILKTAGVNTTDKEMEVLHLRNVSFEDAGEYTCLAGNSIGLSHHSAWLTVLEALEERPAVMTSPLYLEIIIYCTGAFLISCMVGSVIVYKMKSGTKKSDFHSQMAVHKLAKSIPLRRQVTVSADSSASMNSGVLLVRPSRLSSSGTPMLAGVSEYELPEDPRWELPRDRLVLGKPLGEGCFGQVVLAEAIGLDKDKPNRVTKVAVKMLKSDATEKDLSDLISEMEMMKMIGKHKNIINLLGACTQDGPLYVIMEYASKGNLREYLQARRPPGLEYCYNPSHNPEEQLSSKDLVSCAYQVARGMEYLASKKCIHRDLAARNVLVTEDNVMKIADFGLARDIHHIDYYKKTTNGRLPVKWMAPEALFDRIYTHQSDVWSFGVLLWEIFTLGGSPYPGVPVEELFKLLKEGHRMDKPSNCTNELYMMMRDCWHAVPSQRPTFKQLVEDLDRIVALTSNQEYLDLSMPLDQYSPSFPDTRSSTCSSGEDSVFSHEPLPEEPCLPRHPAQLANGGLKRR
Sequence of Ribosomal protein S6 kinase alpha-1 (Q15418 whole entry): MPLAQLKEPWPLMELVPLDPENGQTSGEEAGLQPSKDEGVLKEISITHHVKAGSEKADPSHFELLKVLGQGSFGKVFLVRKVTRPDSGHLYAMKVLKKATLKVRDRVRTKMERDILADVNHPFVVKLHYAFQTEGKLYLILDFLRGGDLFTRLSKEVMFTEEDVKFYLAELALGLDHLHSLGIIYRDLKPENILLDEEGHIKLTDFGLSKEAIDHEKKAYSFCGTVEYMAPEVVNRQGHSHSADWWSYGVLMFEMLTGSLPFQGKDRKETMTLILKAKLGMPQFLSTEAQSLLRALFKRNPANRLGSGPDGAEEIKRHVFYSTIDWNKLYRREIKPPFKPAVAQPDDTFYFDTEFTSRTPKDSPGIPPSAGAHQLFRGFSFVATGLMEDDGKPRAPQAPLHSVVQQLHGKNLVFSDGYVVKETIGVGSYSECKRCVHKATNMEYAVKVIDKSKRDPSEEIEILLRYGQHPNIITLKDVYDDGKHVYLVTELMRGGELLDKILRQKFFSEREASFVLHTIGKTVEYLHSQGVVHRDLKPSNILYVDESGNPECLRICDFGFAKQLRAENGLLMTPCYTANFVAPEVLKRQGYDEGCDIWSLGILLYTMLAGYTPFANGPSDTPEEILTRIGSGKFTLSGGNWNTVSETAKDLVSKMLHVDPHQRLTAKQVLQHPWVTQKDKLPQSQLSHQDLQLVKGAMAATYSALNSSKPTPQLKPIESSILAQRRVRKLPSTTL
Sequence of Calcium/calmodulin-dependent protein kinase kinase 1 (Homo sapiens) (Q8N5S9 whole entry, looked up): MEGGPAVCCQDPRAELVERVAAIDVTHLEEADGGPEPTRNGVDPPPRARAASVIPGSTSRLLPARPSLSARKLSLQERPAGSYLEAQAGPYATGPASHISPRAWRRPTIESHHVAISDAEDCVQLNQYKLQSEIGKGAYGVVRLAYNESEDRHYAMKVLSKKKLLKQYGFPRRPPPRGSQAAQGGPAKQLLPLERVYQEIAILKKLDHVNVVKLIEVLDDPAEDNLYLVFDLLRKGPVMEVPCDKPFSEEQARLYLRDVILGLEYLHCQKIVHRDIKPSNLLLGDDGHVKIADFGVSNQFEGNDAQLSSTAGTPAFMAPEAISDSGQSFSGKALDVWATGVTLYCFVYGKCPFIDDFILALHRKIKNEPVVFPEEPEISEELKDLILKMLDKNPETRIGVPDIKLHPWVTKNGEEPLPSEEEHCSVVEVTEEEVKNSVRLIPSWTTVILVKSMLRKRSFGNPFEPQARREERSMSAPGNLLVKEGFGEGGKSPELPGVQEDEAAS
Sequence of 5'-AMP-activated protein kinase catalytic subunit alpha-1 (Q13131 whole entry, looked up): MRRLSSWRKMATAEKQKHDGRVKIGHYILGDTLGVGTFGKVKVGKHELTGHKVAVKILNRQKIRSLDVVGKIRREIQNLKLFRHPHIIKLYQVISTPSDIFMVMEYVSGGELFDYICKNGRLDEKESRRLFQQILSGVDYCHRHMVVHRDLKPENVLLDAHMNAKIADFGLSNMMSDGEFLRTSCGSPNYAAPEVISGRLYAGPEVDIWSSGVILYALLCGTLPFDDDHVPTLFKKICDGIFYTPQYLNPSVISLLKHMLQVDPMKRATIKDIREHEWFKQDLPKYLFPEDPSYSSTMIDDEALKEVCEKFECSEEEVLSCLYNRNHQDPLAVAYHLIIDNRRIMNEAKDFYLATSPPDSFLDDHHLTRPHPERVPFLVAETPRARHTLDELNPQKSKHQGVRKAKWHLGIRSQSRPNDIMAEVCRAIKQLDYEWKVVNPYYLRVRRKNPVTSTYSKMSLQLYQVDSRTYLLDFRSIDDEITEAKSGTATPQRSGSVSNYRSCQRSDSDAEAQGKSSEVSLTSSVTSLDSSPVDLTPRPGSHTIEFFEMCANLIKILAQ

**Q.** `COCC(=O)NC/C=C/c1ccc2ncnc(Nc3ccc(Oc4ccc(C)nc4)c(C)c3)c2c1` [CP-724714] was tested. Which % of control [1] did it give?
**A.** Its % of control is 96%.

**Q.** With `C=CC(=O)Nc1cc(-n2c(=O)ccc3cnc4ccc(-c5ccc(NS(C)(=O)=O)cc5)cc4c32)ccc1C` as the compound, how does the % of control [2] read?
**A.** The % of control was 78%.

**Q.** Which % of control [3] does the source give for `Nc1cnc(N2CCc3cc(S(=O)(=O)Nc4c(F)cc(Cl)cc4F)cc(N4CCCC4=O)c32)nc1` [TP-020n] here?
**A.** The % of control was 42%.

**Q.** How did the % of inhibition [4] turn out when `Cn1cc(-n2cnc3c(NCc4nc5cc(Cl)c(Cl)cc5[nH]4)nc(N4CCOCC4)nc32)cn1` was run?
**A.** The % of inhibition was -8.96%.

**Q.** How did the % of inhibition [5] turn out when `CC[C@@H](Nc1c(C#N)c(-c2ccc(-c3cccc(C)c3F)cc2)nc2cnccc12)C(=O)O` [BAY-091] was run?
**A.** The % of inhibition was 25.4%.

**Q.** For `N#Cc1cccc(-c2c[nH]c3ncnc(N4CCOCC4)c23)c1`, which % of inhibition [6] is on record?
**A.** The % of inhibition was 27%.

**Q.** Which % of inhibition [7] does the source give for `CCc1cc(Nc2nccc(-c3c(-c4ccc(OC)c(C(=O)Nc5c(F)cccc5F)c4)nc4ccccn34)n2)c(OC)cc1N1CCC(N2CCN(S(C)(=O)=O)CC2)CC1` here?
**A.** The % of inhibition was 68%.

**Q.** Which % of control [8] does the source give for `O[C@H]1CC[C@H](Nc2ncc3nc(Nc4c(F)cc(F)cc4F)n([C@H]4CCOC4)c3n2)CC1` here?
**A.** Its % of control is 7.8%.

**Q.** For `CCC(=O)N1CCN(c2ccc(-n3c(=O)ccc4cnc5ccc(-c6cnc7ccccc7c6)cc5c43)cc2C(F)(F)F)CC1`, which % of control [9] is on record?
**A.** The % of control was 89%.
